Source: ChEMBL document CHEMBL1201862, “PubChem BioAssay data set” (2004)
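Assay format: 96-well plates, 48-hour exposure. Abbreviation: GI50, concentration required for 50% inhibition of growth.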 The source made the active and inactive calls. Rule as the data show it: active = GI50 up to about 1.1 µM and inactive = higher.

Columns and labels:
Assay in all cases: NCI anticancer screen, dose series, 48 h
M19-MEL = system: M19-MEL
RXF 393 = system: RXF 393
SR = system: SR
CAKI-1 = system: CAKI-1
SF-539 = system: SF-539
DMS-114 = system: DMS-114
KM-20L2 = system: KM-20L2
HCC 2998 = system: HCC 2998
DLD-1 = system: DLD-1
XF498 = system: XF498
A498 = system: A498
NCI-H522 = system: NCI-H522
LXFL 529 = system: LXFL 529
SNB-78 = system: SNB-78
786-0 = system: 786-0
MCF7 = system: MCF7
NCI/ADR-RES = system: NCI/ADR-RES

Measured: GI50

CCN(CC)CCO[Si](OCCN(CC)CC)(OCCN(CC)CC)OCCN(CC)CC
inactive: M19-MEL > 100 µM | RXF 393 > 100 µM | SR > 100 µM | CAKI-1 > 100 µM | SF-539 > 100 µM | DMS-114 > 100 µM | KM-20L2 > 100 µM | HCC 2998 > 100 µM | DLD-1 > 100 µM | XF498 > 100 µM

Cc1cc(C)nc(NS(=O)(=O)c2ccc(NC(=O)c3cccc4c(Nc5ccc(S(=O)(=O)Nc6cc(C)on6)cc5)c5ccccc5nc34)cc2)n1
inactive: A498 23.8 µM | M19-MEL 26 µM | RXF 393 20.1 µM | SR 27.2 µM | NCI-H522 16.3 µM | SF-539 17.1 µM | DMS-114 20.7 µM | LXFL 529 16.1 µM | SNB-78 41.7 µM | HCC 2998 14.8 µM | DLD-1 30.1 µM | XF498 21.1 µM

CC1(Br)S(=O)(=O)OCCOS1(=O)=O
inactive: A498 > 100 µM | M19-MEL > 100 µM | RXF 393 > 100 µM | SR > 100 µM | NCI-H522 > 100 µM | SF-539 > 100 µM | DMS-114 > 100 µM | LXFL 529 > 100 µM | SNB-78 > 100 µM | KM-20L2 > 100 µM | 786-0 > 100 µM | HCC 2998 > 100 µM | DLD-1 > 100 µM | XF498 > 100 µM

NC(=O)OCC(COc1ccc(Cl)cc1)OC(=O)c1cc([N+](=O)[O-])cc([N+](=O)[O-])c1 (stereo not drawn)
inactive: A498 > 100 µM | RXF 393 > 100 µM | SR > 100 µM | NCI-H522 79.3 µM | CAKI-1 > 100 µM | SF-539 > 100 µM | DMS-114 35.1 µM | LXFL 529 > 100 µM | SNB-78 > 100 µM | KM-20L2 > 100 µM | 786-0 41.6 µM | HCC 2998 > 100 µM | DLD-1 55.2 µM | XF498 58.2 µM

COc1ccc(NC(=O)C(=O)NNC(=O)c2sc(NNC(C)=O)nc2C)c([N+](=O)[O-])c1
inactive: A498 33.3 µM | M19-MEL > 100 µM | SR 45.3 µM | NCI-H522 30.1 µM | SF-539 > 100 µM | DMS-114 > 100 µM | LXFL 529 34.8 µM | SNB-78 > 100 µM | KM-20L2 > 100 µM | 786-0 > 100 µM | HCC 2998 > 100 µM | XF498 71.3 µM

NCC(Cl)C(O)c1c[nH]c(N)n1 (stereo not drawn)
active: A498 0.147 µM | CAKI-1 0.269 µM | SF-539 0.473 µM | KM-20L2 0.596 µM | NCI/ADR-RES 0.596 µM | HCC 2998 0.625 µM
inactive: M19-MEL 2.52 µM | RXF 393 1.19 µM | MCF7 2.77 µM | NCI-H522 1.93 µM | DMS-114 1.54 µM | SNB-78 9.79 µM | DLD-1 1.84 µM | XF498 2.45 µM

COc1cc2cnc3c4cc(OC(C)C)c(OC)cc4ccc3c2cc1OC
inactive: A498 > 100 µM | M19-MEL > 100 µM | NCI-H522 > 100 µM | CAKI-1 > 100 µM | SF-539 > 100 µM | DMS-114 > 100 µM | LXFL 529 > 100 µM | KM-20L2 > 100 µM | 786-0 > 100 µM | HCC 2998 > 100 µM | DLD-1 > 100 µM | XF498 > 100 µM

O=C(/C(=C/c1ccc(Cl)cc1)c1ccccc1)c1ccccc1
inactive: A498 23.6 µM | SR 19.9 µM | NCI-H522 14.2 µM | SF-539 17.4 µM | DMS-114 16.7 µM | LXFL 529 15.9 µM | SNB-78 19.9 µM | 786-0 22.3 µM | HCC 2998 16.9 µM | DLD-1 15.2 µM | XF498 18.5 µM

O=C(NC(Cc1ccc(Cl)cc1)C(=O)O)c1ccc(I)cc1 (stereo not drawn)
inactive: A498 > 100 µM | M19-MEL > 100 µM | RXF 393 > 100 µM | MCF7 > 67 µM | NCI-H522 > 83.2 µM | CAKI-1 > 100 µM | SF-539 > 100 µM | SNB-78 > 100 µM | NCI/ADR-RES > 100 µM | HCC 2998 3.42 µM | DLD-1 > 100 µM | XF498 > 64.4 µM

O=C(Cc1ccccc1)N/N=C(/c1nc2ccc([N+](=O)[O-])cc2nc1O)C(O)c1ccccc1Cl (stereo not drawn)
inactive: A498 > 100 µM | M19-MEL > 100 µM | SR > 100 µM | NCI-H522 6.28 µM | CAKI-1 46.6 µM | SF-539 > 100 µM | LXFL 529 69.7 µM | SNB-78 > 100 µM | 786-0 > 100 µM | HCC 2998 54 µM | DLD-1 > 100 µM | XF498 > 100 µM

CCOC(=O)CCC1(C(=O)OCC)CCCCC1=O (stereo not drawn)
inactive: A498 > 100 µM | M19-MEL > 100 µM | RXF 393 > 100 µM | NCI-H522 > 100 µM | SF-539 > 100 µM | DMS-114 > 100 µM | LXFL 529 > 100 µM | SNB-78 > 100 µM | KM-20L2 > 100 µM | 786-0 > 100 µM | HCC 2998 > 100 µM | DLD-1 > 100 µM | XF498 > 100 µM

C=CCNC(=O)N(CCC)CCCC(NC(C)=O)C(=O)NCc1ccccc1 (stereo not drawn)
inactive: A498 > 100 µM | M19-MEL > 100 µM | RXF 393 > 100 µM | NCI-H522 > 100 µM | CAKI-1 > 100 µM | SF-539 > 100 µM | DMS-114 > 100 µM | LXFL 529 > 100 µM | KM-20L2 > 100 µM | 786-0 > 100 µM | XF498 > 100 µM

CCOC(=O)Cc1cc(OC)c(OC)cc1/C(Cl)=C(\CO)c1ccc(OC)c(OC)c1
inactive: M19-MEL > 100 µM | RXF 393 37.9 µM | CAKI-1 > 100 µM | DMS-114 66.5 µM | SNB-78 59 µM | KM-20L2 > 100 µM | DLD-1 > 100 µM | XF498 16.9 µM

C=C(C)C1Cc2c(cc(O)c3c(=O)c4ccccc4n(C)c23)O1 (stereo not drawn)
inactive: A498 24.3 µM | RXF 393 15.6 µM | SR 29.9 µM | NCI-H522 19.9 µM | CAKI-1 20.7 µM | DMS-114 > 100 µM | LXFL 529 34 µM | SNB-78 35.6 µM | KM-20L2 > 100 µM | HCC 2998 > 100 µM | DLD-1 27.1 µM | XF498 23.8 µM

COc1ccc(/C(C#N)=C(/N)SCc2ccccc2Cl)cc1
inactive: A498 18.9 µM | M19-MEL 16.6 µM | RXF 393 16.6 µM | SR 25.2 µM | NCI-H522 14 µM | SF-539 17.4 µM | DMS-114 17.7 µM | LXFL 529 14.4 µM | SNB-78 27 µM | KM-20L2 17.8 µM | 786-0 16.1 µM | HCC 2998 17 µM | DLD-1 14.1 µM | XF498 14.8 µM

COC(=O)C12C3C4C1C1C2C3C41C(=O)O (stereo not drawn)
inactive: A498 > 100 µM | M19-MEL > 100 µM | RXF 393 > 100 µM | CAKI-1 > 100 µM | SF-539 > 100 µM | DMS-114 > 100 µM | LXFL 529 > 100 µM | SNB-78 > 100 µM | KM-20L2 > 100 µM | 786-0 > 100 µM | HCC 2998 > 100 µM | DLD-1 > 100 µM | XF498 > 100 µM

CCC12CC[C@H](C#N)N3CCc4c(n(c5ccccc45)C(=O)C1)C32 (stereo partly drawn)
inactive: A498 13.3 µM | M19-MEL 18.7 µM | RXF 393 13.3 µM | CAKI-1 12.6 µM | SF-539 17.5 µM | LXFL 529 16.6 µM | SNB-78 19.5 µM | KM-20L2 16.3 µM | 786-0 16.9 µM | HCC 2998 15.8 µM | DLD-1 18.3 µM | XF498 20 µM

COc1cc(C2c3cc4c(cc3[C@@H](Nc3cccc(CO)c3)C3COC(=O)[C@H]23)OCO4)cc(OC)c1O (stereo partly drawn)
inactive: RXF 393 1.27 µM | NCI/ADR-RES 1.34 µM | HCC 2998 1.73 µM | DLD-1 1.43 µM
active: A498 0.293 µM | M19-MEL 0.871 µM | MCF7 0.22 µM | NCI-H522 1 µM | CAKI-1 0.205 µM | SF-539 0.352 µM | DMS-114 0.427 µM | KM-20L2 0.766 µM | XF498 0.154 µM

Nc1ncnc2c1ncn2C1C(O)C=C(CO)C1O (stereo not drawn)
active: XF498 < 0.0625 µM
inactive: M19-MEL > 625 µM | MCF7 > 625 µM | CAKI-1 > 625 µM | SF-539 > 625 µM | DMS-114 > 625 µM | SNB-78 > 625 µM | KM-20L2 > 625 µM | NCI/ADR-RES > 625 µM | HCC 2998 > 625 µM | DLD-1 > 625 µM

COC1=CC(=O)[C@@]2(C)C(C)[C@H](c3ccccc3)[C@H]2C1=O (stereo partly drawn)
inactive: A498 > 100 µM | M19-MEL > 100 µM | RXF 393 > 100 µM | SR > 100 µM | NCI-H522 > 100 µM | CAKI-1 > 100 µM | SF-539 > 100 µM | LXFL 529 > 100 µM | SNB-78 > 10 µM | KM-20L2 > 100 µM | 786-0 > 100 µM | HCC 2998 > 100 µM | DLD-1 > 100 µM | XF498 > 100 µM

COc1cc(C)c(CC/C(C)=C/Cc2cc(O)ccc2O)c(C)c1C [PANICEIN A HYDROQUINONE]
inactive: A498 > 25 µM | M19-MEL > 25 µM | RXF 393 > 25 µM | SR > 25 µM | NCI-H522 > 25 µM | CAKI-1 > 25 µM | SF-539 > 25 µM | DMS-114 > 25 µM | LXFL 529 > 25 µM | KM-20L2 > 25 µM | 786-0 > 25 µM | HCC 2998 > 25 µM | DLD-1 > 25 µM | XF498 > 25 µM
